Measurements as given in patent publication US9550772B2, “Azaindole derivatives as multi kinase inhibitors” (ORIBASE PHARMA, priority 2012, dated 2017).
Where two headings read alike, the source gives them in different places.

Tests used:
KDR (VEGFR2) = target: T1, KDR (VEGFR2) (Homo sapiens, UniProt P35968); test: In vitro kinase assay (Z'-LYTE, Invitrogen); format: biochemical; details: compound at 100 nM, ATP Km apparent, read-out: % of inhibition of the kinase compared to the control
T1 construct: purchased Invitrogen
T1 sequence (P35968 20-1356): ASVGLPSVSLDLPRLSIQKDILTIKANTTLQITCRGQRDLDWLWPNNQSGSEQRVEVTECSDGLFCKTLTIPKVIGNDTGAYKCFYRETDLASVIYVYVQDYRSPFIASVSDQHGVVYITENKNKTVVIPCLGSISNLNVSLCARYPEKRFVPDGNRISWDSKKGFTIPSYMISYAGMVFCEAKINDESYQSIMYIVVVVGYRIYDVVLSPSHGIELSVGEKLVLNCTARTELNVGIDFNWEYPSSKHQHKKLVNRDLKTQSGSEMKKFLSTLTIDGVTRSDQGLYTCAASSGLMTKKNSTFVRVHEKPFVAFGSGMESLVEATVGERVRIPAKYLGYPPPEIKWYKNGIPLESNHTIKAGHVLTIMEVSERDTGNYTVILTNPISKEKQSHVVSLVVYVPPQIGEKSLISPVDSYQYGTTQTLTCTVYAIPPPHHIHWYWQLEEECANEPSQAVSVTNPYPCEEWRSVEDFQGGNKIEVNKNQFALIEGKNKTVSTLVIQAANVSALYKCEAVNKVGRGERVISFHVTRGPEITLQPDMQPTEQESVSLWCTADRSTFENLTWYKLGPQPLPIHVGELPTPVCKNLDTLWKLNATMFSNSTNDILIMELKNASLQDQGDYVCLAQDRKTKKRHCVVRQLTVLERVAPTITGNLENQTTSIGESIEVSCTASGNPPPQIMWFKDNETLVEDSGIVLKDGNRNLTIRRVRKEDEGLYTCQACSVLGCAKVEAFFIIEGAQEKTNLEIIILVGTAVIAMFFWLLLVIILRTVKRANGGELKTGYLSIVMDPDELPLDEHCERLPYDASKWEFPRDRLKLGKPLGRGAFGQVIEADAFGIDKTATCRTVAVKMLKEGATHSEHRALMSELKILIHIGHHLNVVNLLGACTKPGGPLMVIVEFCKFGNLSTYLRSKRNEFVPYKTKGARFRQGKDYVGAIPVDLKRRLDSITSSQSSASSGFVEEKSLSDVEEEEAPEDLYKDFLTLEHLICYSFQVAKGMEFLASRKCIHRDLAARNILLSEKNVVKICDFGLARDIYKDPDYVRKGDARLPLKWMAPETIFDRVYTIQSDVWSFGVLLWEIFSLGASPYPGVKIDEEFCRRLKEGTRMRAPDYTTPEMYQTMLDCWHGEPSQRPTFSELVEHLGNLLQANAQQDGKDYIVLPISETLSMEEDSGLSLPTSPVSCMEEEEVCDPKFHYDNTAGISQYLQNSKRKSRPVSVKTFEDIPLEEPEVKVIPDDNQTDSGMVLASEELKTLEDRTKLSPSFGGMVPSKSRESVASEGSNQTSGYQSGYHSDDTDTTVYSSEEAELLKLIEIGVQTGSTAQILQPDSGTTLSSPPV
Procedure: (§1) The inhibitory activity of the compounds on 7 kinases (BRAF, EGFR (ErbB1), EGFR (ErbB1) T790M L858R, FGFR2, KDR (VEGFR2), PDGFRA (PDGFR alpha), SRC) was evaluated by Invitrogen using the Z′-LYTE® technology. Briefly, the Z′-LYTE® biochemical assay employs a fluorescence-based, coupled-enzyme format and is based on the differential sensitivity of phosphorylated and non-phosphorylated peptides to proteolytic cleavage. The peptide substrate is labeled with two fluorophores—one at each end—that make up a FRET pair. A ratiometric method, which calculates the ratio (the Emission Ratio) of donor emission to acceptor emission after excitation of the donor fluorophore at 400 nm, is used to quantitate reaction progress.
(§2) The compounds are screened in 1% DMSO (final) in the well. For 10 point titrations, 3-fold serial dilutions are conducted from the starting concentration. All Peptide/Kinase Mixtures are diluted to a 2× working concentration in the appropriate Kinase Buffer. All ATP Solutions are diluted to a 4× working concentration in Kinase Buffer (50 mM HEPES pH 7.5, 0.01% BRIJ-35, 10 mM MgCl2, 1 mM EGTA). ATP Km apparent is previously determined using a Z′-LYTE® assay.
(§3) Each compound was incubated at a concentration of 100 nM and the tables 21 to 27 summarize the results obtained showing the inhibitory power of a compound.

BRAF = target: T2, BRAF (Homo sapiens, UniProt P15056); test: In vitro kinase assay (Z'-LYTE, Invitrogen); format: biochemical; details: compound at 100 nM, ATP Km apparent, read-out: % of inhibition of the kinase compared to the control
T2 construct: purchased Invitrogen
T2 sequence (P15056 whole entry): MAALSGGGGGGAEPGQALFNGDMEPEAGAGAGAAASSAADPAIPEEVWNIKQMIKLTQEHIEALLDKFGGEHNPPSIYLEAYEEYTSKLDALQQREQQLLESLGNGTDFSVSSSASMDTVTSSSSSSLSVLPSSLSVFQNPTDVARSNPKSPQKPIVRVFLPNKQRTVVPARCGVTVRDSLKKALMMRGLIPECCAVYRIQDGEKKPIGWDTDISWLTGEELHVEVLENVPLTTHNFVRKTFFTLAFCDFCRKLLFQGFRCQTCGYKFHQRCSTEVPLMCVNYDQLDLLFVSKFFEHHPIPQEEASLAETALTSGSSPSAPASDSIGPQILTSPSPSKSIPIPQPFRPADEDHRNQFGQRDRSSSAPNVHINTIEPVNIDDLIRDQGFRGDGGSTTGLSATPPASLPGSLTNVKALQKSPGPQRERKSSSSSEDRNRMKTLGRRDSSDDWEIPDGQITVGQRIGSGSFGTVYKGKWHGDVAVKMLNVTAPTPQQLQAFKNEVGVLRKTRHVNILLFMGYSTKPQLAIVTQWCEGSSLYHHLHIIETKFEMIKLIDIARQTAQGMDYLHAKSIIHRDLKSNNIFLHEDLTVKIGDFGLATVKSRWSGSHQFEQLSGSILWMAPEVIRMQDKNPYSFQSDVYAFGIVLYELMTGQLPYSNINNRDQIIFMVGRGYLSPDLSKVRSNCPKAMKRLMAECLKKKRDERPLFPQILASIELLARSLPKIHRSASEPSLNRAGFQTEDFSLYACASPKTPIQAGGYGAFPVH
Procedure: as §1, §2, §3

EGFR (ErbB1) = target: T3, EGFR (ErbB1) (Homo sapiens, UniProt P00533); test: In vitro kinase assay (Z'-LYTE, Invitrogen); format: biochemical; details: compound at 100 nM, ATP Km apparent, read-out: % of inhibition of the kinase compared to the control
T3 construct: purchased Invitrogen
T3 sequence (P00533 25-1210): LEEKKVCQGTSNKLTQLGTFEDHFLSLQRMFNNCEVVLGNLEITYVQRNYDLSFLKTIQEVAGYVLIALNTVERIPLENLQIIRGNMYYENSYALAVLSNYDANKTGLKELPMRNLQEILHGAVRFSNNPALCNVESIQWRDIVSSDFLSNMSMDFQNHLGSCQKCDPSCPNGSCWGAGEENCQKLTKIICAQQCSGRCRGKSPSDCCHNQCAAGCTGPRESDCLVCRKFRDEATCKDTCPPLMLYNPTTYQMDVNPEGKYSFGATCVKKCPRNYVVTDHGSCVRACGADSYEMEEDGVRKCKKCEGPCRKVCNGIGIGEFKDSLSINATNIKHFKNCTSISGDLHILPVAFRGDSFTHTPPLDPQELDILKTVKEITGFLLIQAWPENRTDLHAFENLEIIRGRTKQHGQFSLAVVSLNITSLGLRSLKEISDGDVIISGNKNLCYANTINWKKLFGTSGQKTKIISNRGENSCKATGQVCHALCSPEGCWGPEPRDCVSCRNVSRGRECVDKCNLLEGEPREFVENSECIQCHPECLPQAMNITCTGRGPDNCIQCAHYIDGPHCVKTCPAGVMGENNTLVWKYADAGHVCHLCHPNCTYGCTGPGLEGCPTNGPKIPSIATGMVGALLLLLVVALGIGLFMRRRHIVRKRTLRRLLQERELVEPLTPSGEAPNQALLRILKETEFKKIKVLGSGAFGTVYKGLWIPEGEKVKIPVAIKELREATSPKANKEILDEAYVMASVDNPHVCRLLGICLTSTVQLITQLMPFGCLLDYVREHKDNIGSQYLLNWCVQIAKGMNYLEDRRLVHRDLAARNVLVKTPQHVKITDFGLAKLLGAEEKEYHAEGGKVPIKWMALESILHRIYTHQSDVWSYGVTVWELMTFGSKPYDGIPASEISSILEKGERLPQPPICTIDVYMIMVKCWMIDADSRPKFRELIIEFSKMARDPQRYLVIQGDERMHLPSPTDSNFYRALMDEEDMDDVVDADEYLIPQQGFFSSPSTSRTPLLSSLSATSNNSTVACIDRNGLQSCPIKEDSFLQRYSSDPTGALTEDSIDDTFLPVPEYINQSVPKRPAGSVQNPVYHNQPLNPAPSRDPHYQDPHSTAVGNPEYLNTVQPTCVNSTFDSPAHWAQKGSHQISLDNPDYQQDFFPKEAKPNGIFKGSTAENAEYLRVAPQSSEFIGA
Procedure: as §1, §2, §3

FGFR2 = target: T4, FGFR2 (Homo sapiens, UniProt P21802); test: In vitro kinase assay (Z'-LYTE, Invitrogen); format: biochemical; details: compound at 100 nM, ATP Km apparent, read-out: % of inhibition of the kinase compared to the control
T4 construct: purchased Invitrogen
T4 sequence (P21802 22-821): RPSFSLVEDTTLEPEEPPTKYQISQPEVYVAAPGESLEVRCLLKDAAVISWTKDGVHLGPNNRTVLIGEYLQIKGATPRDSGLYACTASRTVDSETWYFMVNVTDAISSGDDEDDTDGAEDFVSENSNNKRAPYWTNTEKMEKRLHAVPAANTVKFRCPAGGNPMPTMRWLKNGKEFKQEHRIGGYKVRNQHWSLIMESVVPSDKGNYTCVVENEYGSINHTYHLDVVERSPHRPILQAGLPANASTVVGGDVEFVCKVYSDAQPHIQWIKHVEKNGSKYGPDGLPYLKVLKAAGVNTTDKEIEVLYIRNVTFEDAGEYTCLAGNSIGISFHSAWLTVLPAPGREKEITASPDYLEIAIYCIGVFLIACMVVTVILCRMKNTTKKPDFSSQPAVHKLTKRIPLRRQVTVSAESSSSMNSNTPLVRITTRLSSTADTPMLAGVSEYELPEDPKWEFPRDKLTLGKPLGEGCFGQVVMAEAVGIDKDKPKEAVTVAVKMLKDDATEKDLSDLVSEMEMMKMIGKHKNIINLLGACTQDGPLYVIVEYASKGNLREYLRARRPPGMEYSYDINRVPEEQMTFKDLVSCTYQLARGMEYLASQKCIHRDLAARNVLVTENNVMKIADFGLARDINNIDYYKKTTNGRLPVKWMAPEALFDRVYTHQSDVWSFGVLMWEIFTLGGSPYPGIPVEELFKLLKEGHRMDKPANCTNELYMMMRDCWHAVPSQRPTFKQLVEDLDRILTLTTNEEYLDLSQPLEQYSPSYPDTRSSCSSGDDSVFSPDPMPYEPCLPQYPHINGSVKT
Procedure: as §1, §2, §3

HUVEC cells = test: In vitro cell proliferation assay (MTT); format: cell-based; details: Homo sapiens, 72 hr, read-out: EC50, anti-proliferative activity
Procedure: (§4) Cancer cell lines (5×10^3 cells per well) or HUVEC (1×10^4 cells per well) or HRMEC (1×10^4 cells per well) were distributed in 96-well plates and incubating in duplicate with escalating concentrations (10 nM to 3 μM) of compounds for 72 hr. Cell proliferation was measured using MTT (3[4,5-dimethylthiazol-2-yl]-2,5-diphenyltetrazolium bromide). The EC50 values were calculated from sigmoidal dose-response curves utilizing Prism 5.0 from Graph-Pad Software (GraphPad Software, La Jolla, Calif., USA), with values normalized to those of DMSO-treated control wells (0%) and 1% SDS control wells (100%).

HeLa cell line = test: In vitro cell proliferation assay (MTT); format: cell-based; details: Homo sapiens, 72 hr, read-out: EC50, anti-proliferative activity
Procedure: as §4

MDA-MB-231 cell line = test: In vitro cell proliferation assay (MTT); format: cell-based; details: Homo sapiens, MDA-MB-231, 72 hr, read-out: EC50, anti-proliferative activity
Procedure: as §4

HepG2 cell line = test: In vitro cell proliferation assay (MTT); format: cell-based; details: Homo sapiens, HepG2, 72 hr, read-out: EC50, anti-proliferative activity
Procedure: as §4

A549 cell line = test: In vitro cell proliferation assay (MTT); format: cell-based; details: Homo sapiens, A549, 72 h, read-out: EC50, anti-proliferative activity
Procedure: as §4

SRC = target: T5, SRC (Homo sapiens, UniProt P12931); test: In vitro kinase assay (Z'-LYTE, Invitrogen); format: biochemical; details: compound at 100 nM, ATP Km apparent, read-out: % of inhibition of the kinase compared to the control
T5 construct: purchased Invitrogen
T5 sequence (P12931 whole entry): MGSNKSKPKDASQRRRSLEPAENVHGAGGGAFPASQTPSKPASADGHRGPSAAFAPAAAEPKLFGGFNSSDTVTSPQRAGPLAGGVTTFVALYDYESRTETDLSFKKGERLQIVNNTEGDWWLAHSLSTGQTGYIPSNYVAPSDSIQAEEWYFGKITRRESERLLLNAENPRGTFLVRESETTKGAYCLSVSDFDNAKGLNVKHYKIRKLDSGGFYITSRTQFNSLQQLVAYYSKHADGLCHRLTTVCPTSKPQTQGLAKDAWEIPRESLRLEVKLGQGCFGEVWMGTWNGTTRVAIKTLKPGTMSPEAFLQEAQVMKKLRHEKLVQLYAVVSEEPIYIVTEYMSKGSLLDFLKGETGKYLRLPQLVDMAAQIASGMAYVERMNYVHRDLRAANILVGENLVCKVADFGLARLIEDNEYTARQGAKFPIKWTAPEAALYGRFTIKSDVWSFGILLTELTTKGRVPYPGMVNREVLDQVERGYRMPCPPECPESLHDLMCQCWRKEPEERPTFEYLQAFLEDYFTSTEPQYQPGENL
Procedure: as §1, §2, §3

PDGFRA (PDGFR alpha) = target: T6, PDGFRA (PDGFR alpha) (Homo sapiens, UniProt P16234); test: In vitro kinase assay (Z'-LYTE, Invitrogen); format: biochemical; details: compound at 100 nM, ATP Km apparent, read-out: % of inhibition of the kinase compared to the control
T6 construct: purchased Invitrogen
Procedure: as §1, §2, §3

Row | SMILES | inhibition at 0.1 µM (KDR (VEGFR2)) | inhibition at 0.1 µM (BRAF) | inhibition at 0.1 µM (EGFR (ErbB1)) | inhibition at 0.1 µM (FGFR2) | EC50 (HUVEC cells; EC50 ≧ 1 μM) | EC50 (HeLa cell line; EC50 ≧ 1 μM) | EC50 (MDA-MB-231 cell line; 100 nM < EC50 < 1 μM) | EC50 (HepG2 cell line; EC50 ≧ 1 μM) | EC50 (A549 cell line; EC50 ≧ 1 μM) | EC50 (MDA-MB-231 cell line; EC50 ≧ 1 μM) | inhibition at 0.1 µM (SRC) | inhibition at 0.1 µM (PDGFRA (PDGFR alpha)) | EC50 (HepG2 cell line; EC50 ≦ 100 nM) | EC50 (HUVEC cells; EC50 ≦ 100 nM) | EC50 (HeLa cell line; 100 nM < EC50 < 1 μM) | EC50 (A549 cell line; 100 nM < EC50 < 1 μM) | EC50 (HepG2 cell line; 100 nM < EC50 < 1 μM)
1 | COC(=O)c1cc2cc(NCCc3cccc(NC(=O)c4ccc(CN5CCN(C)CC5)c(C(F)(F)F)c4)c3)cnc2[nH]1 [OR1019, 5-(2-{3-[4-(4-Methyl-piperazin-1-ylmethyl)-3-trifluoromethyl-benzoylamino]-phenyl}-ethylamino)-1H-pyrrolo[2,3-b]pyridine-2-carboxylic acid methyl ester] | ≥ 50% | < 50% | ≥ 50% | < 50% | ≥ 1000 nM | ≥ 1000 nM | 100 to 1000 nM | ≥ 1000 nM | ≥ 1000 nM | – | – | – | – | – | – | – | –
2 | COC(=O)c1cc2cc(CCc3cccc(CNC(=O)c4ccc(CN5CCN(C)CC5)c(C(F)(F)F)c4)c3)cnc2[nH]1 [OR1018, 5-[2-(3-{[4-(4-Methyl-piperazin-1-ylmethyl)-3-trifluoromethyl-benzoylamino]-methyl}-phenyl)-ethyl]-1H-pyrrolo[2,3-b]pyridine-2-carboxylic acid methyl ester] | ≥ 50% | < 50% | < 50% | < 50% | ≥ 1000 nM | ≥ 1000 nM | – | ≥ 1000 nM | ≥ 1000 nM | ≥ 1000 nM | – | – | – | – | – | – | –
3 | CC(=O)c1cc2cc(CCc3cc(NC(=O)Nc4cccc(C(F)(F)F)c4)ccc3C)cnc2[nH]1 [OR0919, 1-{3-[2-(2-Acetyl-1H-pyrrolo[2,3-b]pyridin-5-yl)-ethyl]-4-methyl-phenyl}-3-(3-trifluoromethyl-phenyl)-urea] | < 50% | < 50% | < 50% | < 50% | ≥ 1000 nM | ≥ 1000 nM | 100 to 1000 nM | – | ≥ 1000 nM | – | < 50% | ≥ 50% | ≤ 100 nM | – | – | – | –
4 | COC(=O)c1cc2cc(CCc3cc(NC(=O)c4ccc(CN5CCN(C)CC5)c(C(F)(F)F)c4)ccc3Cl)cnc2[nH]1 [OR1006, 5-(2-{2-Chloro-5-[4-(4-methyl-piperazin-1-ylmethyl)-3-trifluoromethyl-benzoylamino]-phenyl}ethyl)-1H-pyrrolo[2,3-b]pyridine-2-carboxylic acid methyl ester] | ≥ 50% | < 50% | ≥ 50% | ≥ 50% | – | – | 100 to 1000 nM | ≥ 1000 nM | – | – | – | – | – | ≤ 100 nM | 100 to 1000 nM | 100 to 1000 nM | –
5 | CC(=O)c1cc2cc(CCc3cc(NC(=S)Nc4cccc(C(F)(F)F)c4)ccc3C)cnc2[nH]1 [OR1017, 1-{3-[2-(2-Acetyl-1H-pyrrolo[2,3-b]pyridin-5-yl)-ethyl]-4-methyl-phenyl}-3-(3-trifluoromethyl-phenyl)-thiourea] | < 50% | < 50% | < 50% | < 50% | ≥ 1000 nM | ≥ 1000 nM | – | – | ≥ 1000 nM | ≥ 1000 nM | – | – | – | – | – | – | 100 to 1000 nM
6 | COC(=O)c1cc2cc(CNCc3cccc(NC(=O)c4ccc(CN5CCN(C)CC5)c(C(F)(F)F)c4)c3)cnc2[nH]1 [OR1020, 5-({3-[4-(4-Methyl-piperazin-1-ylmethyl)-3-trifluoromethyl-benzoylamino]-benzylamino}-methyl)-1H-pyrrolo[2,3-b]pyridine-2-carboxylic acid methyl ester] | ≥ 50% | < 50% | < 50% | < 50% | ≥ 1000 nM | ≥ 1000 nM | – | ≥ 1000 nM | ≥ 1000 nM | ≥ 1000 nM | – | – | – | – | – | – | –
